Results reported in paper PMC6545112 (Journal of medicinal chemistry, 2018).
Read-outs that look alike come from different tables or passages of the source.

Legend:
[1] = target: MDM2 and p53 proteins in RS4;11 cells (Homo sapiens, UniProt Q00987); test: western blotting analysis of MDM2 and p53 proteins in RS4; type: cell-based; conditions: 2 h treatment; for effect on MDM2 and p53 protein levels (western blotting): RS4;11 cells
RS4;11 cell line = test: cell growth inhibition, WST-8 assay, RS4; type: cell-based, human; conditions: for IC50: read-out: IC50 (nM) in inhibition of cell growth in the RS4;11 cell line, 4 days, WST-8 assay

Sequence of MDM2 and p53 proteins in RS4;11 cells (Q00987 whole entry): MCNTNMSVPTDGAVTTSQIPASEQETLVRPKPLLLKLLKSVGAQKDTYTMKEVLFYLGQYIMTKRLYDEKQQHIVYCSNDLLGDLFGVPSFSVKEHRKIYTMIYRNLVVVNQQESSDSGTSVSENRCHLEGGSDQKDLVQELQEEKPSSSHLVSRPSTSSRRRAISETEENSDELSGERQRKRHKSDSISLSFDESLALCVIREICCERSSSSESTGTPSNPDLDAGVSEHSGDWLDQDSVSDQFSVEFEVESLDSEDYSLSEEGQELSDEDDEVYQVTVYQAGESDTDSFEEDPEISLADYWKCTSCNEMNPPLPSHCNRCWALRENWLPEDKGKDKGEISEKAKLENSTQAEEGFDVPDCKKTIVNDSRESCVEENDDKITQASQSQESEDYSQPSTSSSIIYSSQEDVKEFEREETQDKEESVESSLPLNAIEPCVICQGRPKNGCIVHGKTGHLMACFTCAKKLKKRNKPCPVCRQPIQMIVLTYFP

O=C1CCC(N2C(=O)c3cccc(NCCCCCCCNC(=O)c4ccc(NC(=O)[C@@H]5NC6(CCCCC6)[C@@]6(C(=O)Nc7cc(Cl)ccc76)[C@H]5c5cccc(Cl)c5F)cc4)c3C2=O)C(=O)N1 (some centres unmarked) [Compound 8, (3’R,4’S,5’R)-6”-Chloro-4’-(3-Chloro-2-fluorophenyl)-N-(4-((7-((2-(2,6-dioxopiperidin-3-yl)-1,3-dioxoisoindolin-4-yl)amino)heptyl)carbamoyl)phenyl)-2”-oxodispiro[cyclohexane-1,2’-pyrrolidine-3’,3”-indoline]-5’-carboxamide]
effect on MDM2 and p53 protein levels (western blotting) [1]: induce degradation of MDM2 and accumulation of p53
times less potent than 1 in inhibition of cell growth (RS4;11 cell line; RS4;11): 10 times

O=C1CCC(N2C(=O)c3cccc(NCCOCCNC(=O)c4ccc(NC(=O)[C@@H]5NC6(CCCCC6)[C@@]6(C(=O)Nc7cc(Cl)ccc76)[C@H]5c5cccc(Cl)c5F)cc4)c3C2=O)C(=O)N1 (some centres unmarked) [Compound 9, (3’R,4’S,5’R)-6”-Chloro-4’-(3-Chloro-2-fluorophenyl)-N-(4-((2-(2-((2-(2,6-dioxopiperidin-3-yl)-1,3-dioxoisoindolin-4-yl)amino)ethoxy)ethyl)carbamoyl)phenyl)-2”-oxodispiro[cyclohexane-1,2’-pyrrolidine-3’,3”-indoline]-5’-carboxamide]
effect on MDM2 and p53 protein levels (western blotting) [1]: effectively induce degradation of MDM2 and accumulation of p53

O=C1CCC(N2C(=O)c3cccc(NCCCCCNC(=O)c4ccc(NC(=O)[C@@H]5NC6(CCCCC6)[C@@]6(C(=O)Nc7cc(Cl)ccc76)[C@H]5c5cccc(Cl)c5F)cc4)c3C2=O)C(=O)N1 (some centres unmarked) [Compound 6, (3’R,4’S,5’R)-6”-Chloro-4’-(3-Chloro-2-fluorophenyl)-N-(4-((5-((2-(2,6-dioxopiperidin-3-yl)-1,3-dioxoisoindolin-4-yl)amino)pentyl)carbamoyl)phenyl)-2”-oxodispiro[cyclohexane-1,2’-pyrrolidine-3’,3”-indoline]-5’-carboxamide]
effect on MDM2 and p53 protein levels (western blotting) [1]: induce degradation of MDM2 and accumulation of p53

O=C1CCC(N2C(=O)c3cccc(NCCCCNC(=O)c4ccc(NC(=O)[C@@H]5NC6(CCCCC6)[C@@]6(C(=O)Nc7cc(Cl)ccc76)[C@H]5c5cccc(Cl)c5F)cc4)c3C2=O)C(=O)N1 (some centres unmarked) [Compound 1, (3’R,4’S,5’R)-6”-Chloro-4’-(3-Chloro-2-fluorophenyl)-N-(4-((4-((2-(2,6-dioxopiperidin-3-yl)-1,3-dioxoisoindolin-4-yl)amino)butyl)carbamoyl)phenyl)-2”-oxodispiro[cyclohexane-1,2’-pyrrolidine-3’,3”-indoline]-5’-carboxamide]
concentration that reduces/depletes MDM2 protein ([1]; RS4;11 / leukemia cells): 3 nM
effect on MDM2 and p53 protein levels (western blotting) [1]: effectively reduce the level of MDM2 protein
times more potent than MI-1061 and MI-1242 in inhibition of cell growth (RS4;11 cell line; RS4;11): about 10 times

CN1C(=O)CCC(N2Cc3c(C#CCCCNC(=O)c4ccc(NC(=O)[C@@H]5NC6(CCCCC6)[C@@]6(C(=O)Nc7cc(Cl)ccc76)[C@H]5c5cccc(Cl)c5F)cc4)cccc3C2=O)C1=O (some centres unmarked) [Compound 22, (3’R,4’S,5’R)-6”-Chloro-4’-(3-chloro-2-fluorophenyl)-N-(4-((5-(2-(1-methyl-2,6-dioxopiperidin-3-yl)-1-oxoisoindolin-4-yl)pent-4-yn-1-yl)carbamoyl)phenyl)-2”-oxodispiro[cyclohexane-1,2’-pyrrolidine-3’,3”-indoline]-5’-carboxamide]
effect on MDM2 and p53 protein levels (western blotting) [1]: completely inactive in inducing MDM2 degradation
times less potent than MD-224 in inhibition of cell growth (RS4;11 cell line; RS4;11): > 100 times

O=C1CCC(N2Cc3c(C#CCCCNC(=O)c4ccc(NC(=O)[C@H]5NC6(CCCCC6)[C@]6(C(=O)Nc7cc(Cl)ccc76)[C@@H]5c5cccc(Cl)c5F)cc4)cccc3C2=O)C(=O)N1 (some centres unmarked) [Compound 21, (3’S,4’R,5’S)-6”-Chloro-4’-(3-chloro-2-fluorophenyl)-N-(4-((5-(2-(2,6-dioxopiperidin-3-yl)-1-oxoisoindolin-4-yl)pent-4-yn-1-yl)carbamoyl)phenyl)-2”-oxodispiro[cyclohexane-1,2’-pyrrolidine-3’,3”-indoline]-5’-carboxamide]
effect on MDM2 and p53 protein levels (western blotting) [1]: fails to induce any MDM2 degradation
activity in inhibition of cell growth (in words) (RS4;11 cell line; RS4;11): minimal activity

O=C1CCC(N2C(=O)c3cccc(NCCOCCOCCOCCNC(=O)c4ccc(NC(=O)[C@@H]5NC6(CCCCC6)[C@@]6(C(=O)Nc7cc(Cl)ccc76)[C@H]5c5cccc(Cl)c5F)cc4)c3C2=O)C(=O)N1 (some centres unmarked) [Compound 10, (3’R,4’S,5’R)-6”-Chloro-4’-(3-Chloro-2-fluorophenyl)-N-(4-((2-(2-(2-(2-((2-(2,6-dioxopiperidin-3-yl)-1,3-dioxoisoindolin-4-yl)amino)ethoxy)ethoxy)ethoxy)-ethyl)carbamoyl)phenyl)-2”-oxodispiro[cyclohexane-1,2’-pyrrolidine-3’,3”-indoline]-5’-carboxamide]
effect on MDM2 and p53 protein levels (western blotting) [1]: effectively induce degradation of MDM2 and accumulation of p53
IC50 (RS4;11 cell line; Homo sapiens, RS4-11, 96 h): 4.5 nM

(3’R,4’S,5’R)-6”-Chloro-4’-(3-chloro-2-fluorophenyl)-N-(4-((2-(2,6-dioxopiperidin-3-yl)-1-oxoisoindolin-4-yl)carbamoyl)phenyl)-2”-oxodispiro[cyclohexane-1,2’-pyrrolidine-3’,3”-indoline]-5’-carboxamide [Compound 3]
effect on MDM2 and p53 protein levels (western blotting) [1]: fails to induce MDM2 degradation
IC50 (RS4;11 cell line): 68.4 ± 36 nM

(3’R,4’S,5’R)-6”-Chloro-4’-(3-Chloro-2-fluorophenyl)-N-(4-((5-(2-(2,6-dioxopiperidin-3-yl)-3-oxoisoindolin-5-yl)pent-4-yn-1-yl)carbamoyl)phenyl)-2”-oxodispiro[cyclohexane-1,2’-pyrrolidine-3’,3”-indoline]-5’-carboxamide [Compound 17]
effect on MDM2 and p53 protein levels (western blotting) [1]: effectively induce degradation of MDM2 and accumulation of p53
times less potent than MD-224 in inhibition of cell growth (RS4;11 cell line; RS4;11): 3 times
IC50 (RS4;11 cell line): 5 ± 3 nM

O=C1CCC(N2C(=O)c3cccc(NCCCCCCNC(=O)c4ccc(NC(=O)[C@@H]5NC6(CCCCC6)[C@@]6(C(=O)Nc7cc(Cl)ccc76)[C@H]5c5cccc(Cl)c5F)cc4)c3C2=O)C(=O)N1 (some centres unmarked) [Compound 7, (3’R,4’S,5’R)-6”-Chloro-4’-(3-Chloro-2-fluorophenyl)-N-(4-((6-((2-(2,6-dioxopiperidin-3-yl)-1,3-dioxoisoindolin-4-yl)amino)hexyl)carbamoyl)phenyl)-2”-oxodispiro[cyclohexane-1,2’-pyrrolidine-3’,3”-indoline]-5’-carboxamide]
effect on MDM2 and p53 protein levels (western blotting) [1]: induce degradation of MDM2 and accumulation of p53

O=C1CCC(N2C(=O)c3cccc(NCCCNC(=O)c4ccc(NC(=O)[C@@H]5NC6(CCCCC6)[C@@]6(C(=O)Nc7cc(Cl)ccc76)[C@H]5c5cccc(Cl)c5F)cc4)c3C2=O)C(=O)N1 (some centres unmarked) [Compound 5, (3’R,4’S,5’R)-6”-Chloro-4’-(3-Chloro-2-fluorophenyl)-N-(4-((3-((2-(2,6-dioxopiperidin-3-yl)-1,3-dioxoisoindolin-4-yl)amino)propyl)carbamoyl)phenyl)-2”-oxodispiro[cyclohexane-1,2’-pyrrolidine-3’,3”-indoline]-5’-carboxamide]
effect on MDM2 and p53 protein levels (western blotting) [1]: induce degradation of MDM2 and accumulation of p53

CNC(=O)c1ccc(NC(=O)[C@@H]2NC3(CCCCC3)[C@@]3(C(=O)Nc4cc(Cl)ccc43)[C@H]2c2cccc(Cl)c2F)cc1 [MI-1242]
effect on MDM2 and p53 protein levels (western blotting) [1]: inducing accumulation of both MDM2 and p53

O=C1CCC(N2C(=O)c3cccc(CCCCCNC(=O)c4ccc(NC(=O)[C@@H]5NC6(CCCCC6)[C@@]6(C(=O)Nc7cc(Cl)ccc76)[C@H]5c5cccc(Cl)c5F)cc4)c3C2=O)C(=O)N1 (some centres unmarked) [Compound 11, (3’R,4’S,5’R)-6”-Chloro-4’-(3-Chloro-2-fluorophenyl)-N-(4-((5-(2-(2,6-dioxopiperidin-3-yl)-1,3-dioxoisoindolin-4-yl)pentyl)carbamoyl)phenyl)-2”-oxodispiro[cyclohexane-1,2’-pyrrolidine-3’,3”-indoline]-5’-carboxamide]
times less potent than 1 in inhibition of cell growth (RS4;11 cell line; RS4;11): 3 times

O=C1CCC(N2Cc3c(C#CCCNC(=O)c4ccc(NC(=O)[C@@H]5NC6(CCCCC6)[C@@]6(C(=O)Nc7cc(Cl)ccc76)[C@H]5c5cccc(Cl)c5F)cc4)cccc3C2=O)C(=O)N1 (some centres unmarked) [Compound 15, (3’R,4’S,5’R)-6”-Chloro-4’-(3-chloro-2-fluorophenyl)-N-(4-((4-(2-(2,6-dioxopiperidin-3-yl)-1-oxoisoindolin-4-yl)but-3-yn-1-yl)carbamoyl)phenyl)-2”-oxodispiro[cyclohexane-1,2’-pyrrolidine-3’,3”-indoline]-5’-carboxamide]
times less potent than MD-224 in inhibition of cell growth (RS4;11 cell line; RS4;11): 2 times

O=C1CCC(N2C(=O)c3cccc(NCCNC(=O)c4ccc(NC(=O)[C@@H]5NC6(CCCCC6)[C@@]6(C(=O)Nc7cc(Cl)ccc76)[C@H]5c5cccc(Cl)c5F)cc4)c3C2=O)C(=O)N1 (some centres unmarked) [Compound 4, (3’R,4’S,5’R)-6”-Chloro-4’-(3-Chloro-2-fluorophenyl)-N-(4-((2-((2-(2,6-dioxopiperidin-3-yl)-1,3-dioxoisoindolin-4-yl)amino)ethyl)carbamoyl)phenyl)-2”-oxodispiro[cyclohexane-1,2’-pyrrolidine-3’,3”-indoline]-5’-carboxamide]
effect on MDM2 and p53 protein levels (western blotting) [1]: induce degradation of MDM2 and accumulation of p53

(3’R,4’S,5’R)-6”-Chloro-4’-(3-chloro-2-fluorophenyl)-N-(4-((4-((2-(2,6-dioxopiperidin-3-yl)-1-oxoisoindolin-4-yl)amino)butyl)carbamoyl)phenyl)-2”-oxodispiro[cyclohexane-1,2’-pyrrolidine-3’,3”-indoline]-5’-carboxamide [Compound 12]
times more potent than 1 in inhibition of cell growth (RS4;11 cell line; RS4;11): twice as potent as 1
IC50 (RS4;11 cell line): 5 ± 5 nM
